Patent US8597646B2, “Methods and compositons featuring TGF-beta antagonists for the treatment of marfan syndrome and associated disorders” (The Johns Hopkins University, priority 2005, dated 2013)
Entries after “also recorded” stand apart in the source; their conditions may differ.

How the values were obtained:
Type in all cases: in vivo, mouse
[1] = tested on: Fbn1C1039G/+ mice; assay: Muscle regeneration after cardiotoxin-induced injury in Fbn1C1039G/+ mice; conditions: 4 and 18 days after injury, monopotassium salt
Procedure: All mouse protocols were approved by the Animal Care and Use Committee of Johns Hopkins University School of Medicine. Creation of the mouse line harboring the Fbn1 mutation C1039G has been previously described (Judge, D. P. et al. (2004) J Clin Invest 114, 172-81). All analyses were performed in male mice after back-crossing (>9 times) this mutation into the C57BL/6J background, allowing valid comparisons between litters. Mice were sacrificed with an inhalation overdose of halothane (Sigma-Aldrich) or by cervical dislocation. […] Subsequently, mice were analyzed at 4, 7, 18 and 28 days after injury. For regeneration experiments in mdx mice we injected 150 μl of cardiotoxin into the tibialis anterior muscle of wild-type and mdx mice, either treated or untreated with TGFβ neutralizing antibody (n=6 each group) at 9 months of age and analyzed skeletal muscle at 4 days and 18 days after injection.
Mice were continued on oral therapy for 6 months and sacrificed. […] After 6 months of treatment, forelimb and hindlimb grip strength was assessed using an automated grip strength meter (Columbus Instruments, Columbus, Ohio). […] Total peak force (in Newtons) was determined by an electronic strain gauge as previously described and corrected for body weight (Wagner, K. R., et al. (2002) Ann Neurol 52, 832-6). […]

[2] = tested on: TGFβ signaling (pSmad2/3, periostin); assay: Immunofluorescence of TGFβ signaling markers (pSmad2/3, periostin, TSP1) in skeletal muscle of fibrillin-1 deficient mice
Procedure: (§1) Immunofluorescent studies were performed as previously described (Cohn, R. D. et al. (2002) Cell 110, 639-48). […] The following antibodies were used in this study: goat polyclonal anti-pSmad 2/3, rabbit polyclonal anti c-met and rabbit polyclonal anti-myogenin (all from Santa Cruz Biotechnology Inc.); rabbit polyclonal anti-pSmad2 (#3104, Cell Signal) rat polyclonal anti-lamininyl, rabbit polyclonal anti-dystrophin, rabbit polyclonal antithrombospondin-1 and rabbit polyclonal anti-periostin (all from Abcam); rabbit polyclonal anti-fibrillin-1 (pAb 9543) (Judge, D. P. et al. (2004) J Clin Invest 114, 172-81); goat polyclonal anti-vimentin (Sigma) and, mouse monoclonal anti-beta-sarcoglycan mouse monoclonal anti-developmental myosin (Novocastra). Anti a-dystroglycan antibody IIH6 was generously supplied by Dr. Kevin Campbell, Iowa. Secondary Alexa fluor donkey anti-rabbit, anti-rat, anti mouse IgM and IgG1 and anti-goat conjugated antibodies (Molecular probes) were applied for 1 hour at room temperature. Nuclei were stained with DAPI for 5 minutes, and inverted coverslips were mounted onto glass slides using Cytoseal (Vector Laboratories).
Skeletal muscle from Fbn1^C1039G/+ mice was assessed for increased TGFβ signaling by immunohistochemical staining for phosphorylated Smad2/3 (pSmad2/3). […]

[3] = tested on: TGFβ signaling cascade (TSP1, pSmad2, periostin); assay: Immunofluorescent analysis of proteins downstream of angiotensin II type 1 receptor in mdx muscle; conditions: monopotassium salt
Procedure: as §1
It has recently been shown that thrombospondin-1 (TSP1) acts as a potent mediator of angiotensin II induced TGF-beta activation via AT I R (Zhou Y, et al. (2006) Biochem Biophys Res Commun. 339, 633-641). […] Therefore, the expression of dystrophin, a-dystroglycan and R-sarcoglycan in losartan-treated and untreated mdx mice was investigated.

SMILES: CCCCc1nc(Cl)c(CO)n1Cc1ccc(-c2ccccc2-c2nnn[nH]2)cc1.[K] [losartan, 2-butyl-4-chloro-1-[p-(o-1H-tetrazol-5-ylphenyl)benzyl]imidazole-5-methanol monopotassium salt]
- Muscle regeneration after cardiotoxin injury, in words ([1]; listed as Losartan): rescued; also recorded: normal initiation of muscle regeneration
- Muscle regeneration after cardiotoxin injury, in words [1]: markedly improved
- Nuclear pSmad2/3 and sarcolemmal periostin in uninjured skeletal muscle ([2]; Fbn1C1039G/+ mice, steady state): abrogation of TGFβ signaling
- Expression of thrombospondin-1 (TSP1) and periostin in skeletal muscle ([2]; losartan-treated fibrillin-1 deficient mice): Decreased expression
- Expression of thrombospondin-1 (TSP1) ([3]; mdx diaphragm and other muscles): greatly reduced expression of TSP1
- Dystrophin, a-dystroglycan, sarcoglycan expression / ubiquitin mediated proteolysis ([3]; mdx mice): did not have any impact; also recorded: absent
- Nuclear accumulation of pSmad2 and sarcolemmal expression of periostin ([3]; mdx mice): did not show any significant nuclear accumulation of pSmad2 or sarcolemmal expression of periostin; also recorded: diminished
